The text below walks through data of patent US20030124105A1, “PROGRAMMED CELL DEATH GENES AND PROTEINS” (priority 1993, published 2003).

Structures are written as SMILES.

One assay has as its system HeLa cells. The assay is classed as cell-based, human.
A further assay deals with HeLa/crmA cells. The conditions noted are these: CHX 20 μg/ml, TNF-a 5 ng/ml, 24 h, trypan blue dye exclusion, mean ± SEM.

Description for HeLa/crmA cells: Dosage response of HeLa and HeLa/crmA cells to TNF-α treatment was tested as follows. Cells were seeded in DMEM plus 10% fetal calf serum in a 24-well plate at a density of 4×10^4 cells per well. After overnight incubation, the cells were washed twice with serum-free DMEM. Drugs were then added to a total volume of 0.2 ml of serum-free DMEM and the cells were incubated for 24 hours. Cells were then trypsinized and dead cells scored on a hemocytometer by trypan blue exclusion (Sigma, St. Louis, Mo.). At least 200 cells were scored per well. Each concentration was tested in duplicate each time.
The effect of crmA expression on TNF-induced apoptosis was tested. […] HeLa cells or HeLa/crmA cells were treated with cycloheximide (CHX) (20 μg/ml, Sigma), TNF-α (5 ng/ml, Sigma), or a combination of both drugs. […] Control HeLa and HeLa/crmA cells were tested for the ability to resist increasing amounts of TNF-α in the presence of 10 μg/ml CHX (FIG. 18). […] The dose response of crmA-expressing HeLa cells to increasing amounts of TNF-α in the presence of 10 μg/ml of CHX was tested.

Regarding `C[C@@H]1C[C@@H]([C@H](O)CC2CC(=O)NC(=O)C2)C(=O)[C@@H](C)C1` [CHX, cycloheximide], the “% dead cells” value was determined as 2.9 ± 0.7% in the assay on HeLa cells and 3.8 ± 0.5% in the assay with HeLa/crmA cells.
